Several values for one entry are separate records, joined by “and”; a condition that tells them apart may be missing. Identical values can stand only once.
Key:
[1] = tested on: blood derived macrophages (CD16 on CD14 cells); settings: +30 µM, +100 µM, +300 µM, three days, 5 donors, FIG. 2
Description: Cells were then processed for flow cytometry (5 separate donors) and CD14 cell co-expression of CD16 (macrophage activation marker) was scored.
Percentage of control median CD16 was calculated for all 5 donors +/- SD.

ALS blood monocytes [2] = settings: 3 days
Description: Culture supernatants are harvested and osteopontin levels (OPN) are determined by ELISA.
Repeated with 3 normal and 5 ALS donors.

Normal blood macrophages = settings: 150uM, three days, three donors
[3] = tested on: Blood derived macrophages from ALS patients; settings: 300uM overnight, two ALS patients, FIG. 3
Source text: The maj or focus was on regulation of inflammation as compared to normal macrophage functional genes. […] Note that by “housekeeping genes” is meant B2M, HPRT1, RPL13A, GAPDH, and ACTB.

ALS blood monocytes [4] = settings: 300uM, 3 days, FIG. 4
Description: Culture supernatants were harvested and cytokine levels were determined by ELISA. […] Referring to the Y-axis, percentage of reduction is the level of factor in treated as compared to untreated macrophages. N is 8-18 in several experiments.

Substance: sodium chlorite [sodium chlorite formulation]
- CD16 expression on CD14+ (monocyte lineage) cells [1]: dose dependent down regulation of CD16
- production of OPN from ALS patient macrophages (ELISA) (ALS blood monocytes [2]; 150uM, FIG. 6 panel A): inhibit production of OPN
- SPP1 (osteopontin) gene expression (ALS blood monocytes [2]; dose response, FIG. 6 panel B): inhibits SPP1 (osteopontin) gene expression in a dose-dependent manner
- CCR3 gene down regulated (Normal blood macrophages): 3 X
- CXCL9 gene down regulated (Normal blood macrophages): 14 X
- SERPINB2 gene upregulated (Normal blood macrophages): 4 X
- CCL16 gene expression [3]: clear down regulation
- CCR2 gene expression [3]: clear down regulation
- CXCL9 gene expression [3]: clear down regulation
- CXCL10 gene expression [3]: clear down regulation
- IL-18 gene expression (inflammasome activation) [3]: clear down regulation
- TLR4 gene expression [3]: clear down regulation
- production of secreted inflammatory factors (IL-1Ra, CD163, CD14, OPN) (ALS blood monocytes [4]): inhibits production
- Chlorite % Reduction of factor in vitro, MIG (COVID19 blood monocytes): 88% and 70%
- Chlorite % reduction of factor in vitro, IP10 (COVID19 blood monocytes): 95% and 80%
- down regulation of HGF (COVID19 blood monocytes): greater than 50%
- down regulation of IL1Ra (COVID19 blood monocytes): greater than 50%
- down regulation of IP10 (CXCL10) (COVID19 blood monocytes): greater than 50%
- down regulation of MIG (CXCL9) (COVID19 blood monocytes): greater than 50%
- down regulation of OPN (COVID19 blood monocytes): greater than 50%
- down regulation of sCD163 (CD163) (COVID19 blood monocytes): greater than 50%
- production of COVID-19 patient macrophage produced disease factors (IL-1Ra, IP-10, HGF, MIG, sCD163, OPN) as compared to controls (COVID19 blood monocytes): downregulated production

Source: patent publication US20230256011A1, “Chlorite In the Treatment of Acute Respiratory Distress Syndrome” (The Regents of the University of California, priority 2020, published 2023)
